Results reported in publication doi:10.1101/2020.05.25.114512v1 (bioRxiv, 2020).
In brackets after ≈: the same amount, converted by molar mass.

What was measured:
[1] = test system: neurotensin; settings: ref [25]; cited from earlier work
[2] = test system: pyocyanin produced by Pseudomonas aeruginosa strain PA14; assay: Pyocyanin assay; type: cell-based; settings: administered to Pseudomonas aeruginosa
[3] = Cytotoxic activity; type: cell-based; settings: human, HCT-116 cells (colon carcinoma)
[4] = test system: E. coli TolC mutants; assay: Bacterial cell entry test, LC-MS analysis; type: cell-based, Escherichia coli; settings: concluded from fluorescence microscopy and LC-MS analysis
[5] = test system: pancreatic elastase; settings: previously listed in the literature; cited from earlier work
[6] = Cytotoxic activity; type: cell-based; settings: human, KB-3-1 cells (cervix carcinoma)

Row | Compound | IC50, neurotensin inhibitor [1] [mg/L] | inhibition of pyocyanin production (in words) [2] | IC50 at 5 days [3] [mg/L] | cell entry capabilities for E. coli (authors' conclusion, in words) [4] | inhibition of pancreatic elastase (in words) [5] | IC50 at 5 days [6] [mg/L]
1 | YIYY (bicyclic or more) [cittilin B] | 30 | – | – | – | – | –
2 | CC[C@H](C)[C@@H]1NC(=O)[C@@H](N)Cc2ccc(OC)c(c2)-c2cc3cc(c2O)Oc2ccc(cc2)C[C@@H](C(=O)O)NC(=O)[C@H](C3)NC1=O [cittilin A] | – | no inhibition of pyocyanin production | 110 (≈ 175 µM) | poor cell entry capabilities | moderate inhibitor | 74.8 (≈ 119 µM)
